The compounds below were run on A498 (assay: Cell panel screen (CellTiter-Glo)). Details: A498 (listed under Lung), 20 micromolar, 72 hrs.
Assay type: cell-based, human
Description: (§1) All cells were obtained from the cell bank of the American Type Culture Collection (ATCC) and cultured in the supplier's recommended media supplemented with 10% FBS. The cell panel screen was measured using the CellTiter-Glo assay (Promega, Madison, WI) following a standard protocol. Briefly, cancer cells were seeded in 96-well plates and cultured overnight at 37°C with or without 5% CO2 in an incubator. Each compound was dissolved with limited DMSO and diluted to a certain concentration with culture medium and then added to the corresponding well of the cell plate. The final concentration of compound was 20 μM. The control cells (without treatment) received the same amount of DMSO and were incubated under the same conditions. After 72 h cultivation, 100 μL of the CellTiter-Glo reagent was added directly to each well for 10-minute incubation. The plate was then read on a FlexStation 3 microplate luminometer (Molecular Devices, USA) to monitor the luminescence signal generated by the luciferase-catalyzed reaction of luciferin and ATP. The percent of growth inhibition was calculated using the following formula: (untreated cells − treated cells)/(untreated cells − background without cells) ∗ 100.
For O=C(c1ccc(O)c(O)c1)c1c(O)cc(O)cc1O [gl-25], the “Percent Inhibition” value was -10%.

What follows are compounds tested on A704 (assay: Cell panel screen (CellTiter-Glo)). Details: A704 (Kidney), 20 micromolar, 72 hrs.
Assay type: cell-based, human
Description: as §1
O=C(c1ccc(O)c(O)c1)c1c(O)cc(O)cc1O [gl-25] was tested, and the “Percent Inhibition” value was -5%.

What follows are compounds tested on BT-474 (assay: Cell panel screen (CellTiter-Glo)). Details: BT-474 (Breast), 20 micromolar, 72 hrs.
Assay type: cell-based, human
Description: as §1
For O=C(c1ccc(O)c(O)c1)c1c(O)cc(O)cc1O [gl-25], the “Percent Inhibition” value was -3%.

These compounds were tested on BT-549 (assay: Cell panel screen (CellTiter-Glo)). Details: BT-549 (Breast), 20 micromolar, 72 hrs.
Assay type: cell-based, human
Description: as §1
With O=C(c1ccc(O)c(O)c1)c1c(O)cc(O)cc1O [gl-25] the “Percent Inhibition” value was -10%.

The compounds below were run on Bel-7402 (assay: Cell panel screen (CellTiter-Glo)). Details: Bel-7402 (Liver), 20 micromolar, 72 hrs.
Assay type: cell-based, human
Description: as §1
With O=C(c1ccc(O)c(O)c1)c1c(O)cc(O)cc1O [gl-25] the “Percent Inhibition” value was -5%.

Each compound was assayed on C3A (assay: Cell panel screen (CellTiter-Glo)). Details: C3A (Liver), 20 micromolar, 72 hrs.
Assay type: cell-based, human
Description: as §1
In the case of O=C(c1ccc(O)c(O)c1)c1c(O)cc(O)cc1O [gl-25], the “Percent Inhibition” value is reported as -3%.

These compounds were tested on C8166 (assay: Cell panel screen (CellTiter-Glo)). Details: C8166 (Leukemia), 20 micromolar, 72 hrs.
Assay type: cell-based, human
Description: as §1
O=C(c1ccc(O)c(O)c1)c1c(O)cc(O)cc1O [gl-25] was tested, and the “Percent Inhibition” value was 3%.

Each compound was assayed on CCF-STTG1 (assay: Cell panel screen (CellTiter-Glo)). Details: CCF-STTG1 (Brain), 20 micromolar, 72 hrs.
Assay type: cell-based, human
Description: as §1
In the case of O=C(c1ccc(O)c(O)c1)c1c(O)cc(O)cc1O [gl-25], the “Percent Inhibition” value is reported as 9%.

Each compound was assayed on CW-2 (assay: Cell panel screen (CellTiter-Glo)). Details: CW-2 (Colon), 20 micromolar, 72 hrs.
Assay type: cell-based, human
Description: as §1
In the case of O=C(c1ccc(O)c(O)c1)c1c(O)cc(O)cc1O [gl-25], the “Percent Inhibition” value is reported as -2%.

These compounds were tested on ChaGo-K-1 (assay: Cell panel screen (CellTiter-Glo)). Details: ChaGo-K-1 (Lung), 20 micromolar, 72 hrs.
Assay type: cell-based, human
Description: as §1
In the case of O=C(c1ccc(O)c(O)c1)c1c(O)cc(O)cc1O [gl-25], the “Percent Inhibition” value is reported as -26%.

These compounds were tested on Colo 205 (assay: Cell panel screen (CellTiter-Glo)). Details: Colo 205, 20 micromolar, 72 hrs.
Assay type: cell-based, human
Description: as §1
O=C(c1ccc(O)c(O)c1)c1c(O)cc(O)cc1O [gl-25] was tested, and the “Percent Inhibition” value was -1%.

What follows are compounds tested on HCC1395 (assay: Cell panel screen (CellTiter-Glo)). Details: HCC1395 (Breast), 20 micromolar, 72 hrs.
Assay type: cell-based, human
Description: as §1
With O=C(c1ccc(O)c(O)c1)c1c(O)cc(O)cc1O [gl-25] the “Percent Inhibition” value was -8%.

Each compound was assayed on HCC1569 (assay: Cell panel screen (CellTiter-Glo)). Details: HCC1569 (Breast), 20 micromolar, 72 hrs.
Assay type: cell-based, human
Description: as §1
O=C(c1ccc(O)c(O)c1)c1c(O)cc(O)cc1O [gl-25] was tested, and the “Percent Inhibition” value was 1%.

Each compound was assayed on HCC1599 (assay: Cell panel screen (CellTiter-Glo)). Details: HCC1599 (Breast), 20 micromolar, 72 hrs.
Assay type: cell-based, human
Description: as §1
For O=C(c1ccc(O)c(O)c1)c1c(O)cc(O)cc1O [gl-25], the “Percent Inhibition” value was 11%.

These compounds were tested on HCC1937 (assay: Cell panel screen (CellTiter-Glo)). Details: HCC1937 (Breast), 20 micromolar, 72 hrs.
Assay type: cell-based, human
Description: as §1
For O=C(c1ccc(O)c(O)c1)c1c(O)cc(O)cc1O [gl-25], the “Percent Inhibition” value was 0%.

What follows are compounds tested on HEC-1-A (assay: Cell panel screen (CellTiter-Glo)). Details: HEC-1-A (Uterus), 20 micromolar, 72 hrs.
Assay type: cell-based, human
Description: as §1
O=C(c1ccc(O)c(O)c1)c1c(O)cc(O)cc1O [gl-25] was tested, and the “Percent Inhibition” value was 5%.

What follows are compounds tested on HGC-27 (assay: Cell panel screen (CellTiter-Glo)). Details: HGC-27 (Stomach), 20 micromolar, 72 hrs.
Assay type: cell-based, human
Description: as §1
With O=C(c1ccc(O)c(O)c1)c1c(O)cc(O)cc1O [gl-25] the “Percent Inhibition” value was -3%.

The compounds below were run on HPAF-II (assay: Cell panel screen (CellTiter-Glo)). Details: HPAF-II (Pancreas), 20 micromolar, 72 hrs.
Assay type: cell-based, human
Description: as §1
In the case of O=C(c1ccc(O)c(O)c1)c1c(O)cc(O)cc1O [gl-25], the “Percent Inhibition” value is reported as 1%.

These compounds were tested on HT-1197 (assay: Cell panel screen (CellTiter-Glo)). Details: HT-1197 (Urinary bladder), 20 micromolar, 72 hrs.
Assay type: cell-based, human
Description: as §1
For O=C(c1ccc(O)c(O)c1)c1c(O)cc(O)cc1O [gl-25], the “Percent Inhibition” value was 5%.

Each compound was assayed on J82 (assay: Cell panel screen (CellTiter-Glo)). Details: J82 (Urinary bladder), 20 micromolar, 72 hrs.
Assay type: cell-based, human
Description: as §1
In the case of O=C(c1ccc(O)c(O)c1)c1c(O)cc(O)cc1O [gl-25], the “Percent Inhibition” value is reported as 1%.

Each compound was assayed on M059J (assay: Cell panel screen (CellTiter-Glo)). Details: M059J (Brain), 20 micromolar, 72 hrs.
Assay type: cell-based, human
Description: as §1
In the case of O=C(c1ccc(O)c(O)c1)c1c(O)cc(O)cc1O [gl-25], the “Percent Inhibition” value is reported as -9%.

Each compound was assayed on MSTO-211-H (assay: Cell panel screen (CellTiter-Glo)). Details: MSTO-211-H (Lung), 20 micromolar, 72 hrs.
Assay type: cell-based, human
Description: as §1
In the case of O=C(c1ccc(O)c(O)c1)c1c(O)cc(O)cc1O [gl-25], the “Percent Inhibition” value is reported as -30%.

What follows are compounds tested on NCI-H1623 (assay: Cell panel screen (CellTiter-Glo)). Details: NCI-H1623 (Lung), 20 micromolar, 72 hrs.
Assay type: cell-based, human
Description: as §1
In the case of O=C(c1ccc(O)c(O)c1)c1c(O)cc(O)cc1O [gl-25], the “Percent Inhibition” value is reported as 0%.

Each compound was assayed on NCI-H1694 (assay: Cell panel screen (CellTiter-Glo)). Details: NCI-H1694 (Lung), 20 micromolar, 72 hrs.
Assay type: cell-based, human
Description: as §1
With O=C(c1ccc(O)c(O)c1)c1c(O)cc(O)cc1O [gl-25] the “Percent Inhibition” value was -12%.

What follows are compounds tested on NCI-H1770 (assay: Cell panel screen (CellTiter-Glo)). Details: NCI-H1770 (Lung), 20 micromolar, 72 hrs.
Assay type: cell-based, human
Description: as §1
In the case of O=C(c1ccc(O)c(O)c1)c1c(O)cc(O)cc1O [gl-25], the “Percent Inhibition” value is reported as -10%.

The compounds below were run on NCI-H2347 (assay: Cell panel screen (CellTiter-Glo)). Details: NCI-H2347 (Lung), 20 micromolar, 72 hrs.
Assay type: cell-based, human
Description: as §1
O=C(c1ccc(O)c(O)c1)c1c(O)cc(O)cc1O [gl-25] was tested, and the “Percent Inhibition” value was -13%.

Each compound was assayed on NCI-H2405 (assay: Cell panel screen (CellTiter-Glo)). Details: NCI-H2405 (Lung), 20 micromolar, 72 hrs.
Assay type: cell-based, human
Description: as §1
In the case of O=C(c1ccc(O)c(O)c1)c1c(O)cc(O)cc1O [gl-25], the “Percent Inhibition” value is reported as -9%.

These compounds were tested on NCI-H28 (assay: Cell panel screen (CellTiter-Glo)). Details: NCI-H28 (Lung), 20 micromolar, 72 hrs.
Assay type: cell-based, human
Description: as §1
With O=C(c1ccc(O)c(O)c1)c1c(O)cc(O)cc1O [gl-25] the “Percent Inhibition” value was -9%.

Each compound was assayed on NCI-H524 (assay: Cell panel screen (CellTiter-Glo)). Details: NCI-H524 (Lung), 20 micromolar, 72 hrs.
Assay type: cell-based, human
Description: as §1
O=C(c1ccc(O)c(O)c1)c1c(O)cc(O)cc1O [gl-25] was tested, and the “Percent Inhibition” value was -74%.

What follows are compounds tested on Panc 03.27 (assay: Cell panel screen (CellTiter-Glo)). Details: Panc 03.27 (Pancreas), 20 micromolar, 72 hrs.
Assay type: cell-based, human
Description: as §1
With O=C(c1ccc(O)c(O)c1)c1c(O)cc(O)cc1O [gl-25] the “Percent Inhibition” value was -14%.

These compounds were tested on RL95 (assay: Cell panel screen (CellTiter-Glo)). Details: RL95 (Uterus), 20 micromolar, 72 hrs.
Assay type: cell-based, human
Description: as §1
With O=C(c1ccc(O)c(O)c1)c1c(O)cc(O)cc1O [gl-25] the “Percent Inhibition” value was -8%.

What follows are compounds tested on SW13 (assay: Cell panel screen (CellTiter-Glo)). Details: SW13 (Adrenal gland), 20 micromolar, 72 hrs.
Assay type: cell-based, human
Description: as §1
O=C(c1ccc(O)c(O)c1)c1c(O)cc(O)cc1O [gl-25] was tested, and the “Percent Inhibition” value was -10%.

The compounds below were run on T47D (assay: Cell panel screen (CellTiter-Glo)). Details: T47D (Breast), 20 micromolar, 72 hrs.
Assay type: cell-based, human
Description: as §1
For O=C(c1ccc(O)c(O)c1)c1c(O)cc(O)cc1O [gl-25], the “Percent Inhibition” value was -8%.

Each compound was assayed on T98G (assay: Cell panel screen (CellTiter-Glo)). Details: T98G (Brain), 20 micromolar, 72 hrs.
Assay type: cell-based, human
Description: as §1
In the case of O=C(c1ccc(O)c(O)c1)c1c(O)cc(O)cc1O [gl-25], the “Percent Inhibition” value is reported as -2%.

What follows are compounds tested on TCCSUP (assay: Cell panel screen (CellTiter-Glo)). Details: TCCSUP (Urinary bladder), 20 micromolar, 72 hrs.
Assay type: cell-based, human
Description: as §1
In the case of O=C(c1ccc(O)c(O)c1)c1c(O)cc(O)cc1O [gl-25], the “Percent Inhibition” value is reported as -5%.

The compounds below were run on ZR-75-30 (assay: Cell panel screen (CellTiter-Glo)). Details: ZR-75-30 (Breast), 20 micromolar, 72 hrs.
Assay type: cell-based, human
Description: as §1
In the case of O=C(c1ccc(O)c(O)c1)c1c(O)cc(O)cc1O [gl-25], the “Percent Inhibition” value is reported as -3%.
